Reference: ChEMBL document CHEMBL1201862, “PubChem BioAssay data set” (2004)
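Assay format: 96-well plates, 48-hour exposure. GI50 = concentration required for 50% inhibition of growth.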 Activity calls are given as the source filed them. Cut-off read from the data, not from the text of the source: active = GI50 up to about 1.1 µM and inactive = higher.

Assays:
Assay in all cases: NCI-60 cell line screen, 48 h
M14 = system: M14
OVCAR-4 = system: OVCAR-4
ACHN = system: ACHN
HOP-92 = system: HOP-92
RPMI-8226 = system: RPMI-8226
SNB-19 = system: SNB-19
SK-MEL-2 = system: SK-MEL-2
SF-268 = system: SF-268
RXF 393 = system: RXF 393
SK-OV-3 = system: SK-OV-3
786-0 = system: 786-0
SNB-75 = system: SNB-75
K562 = system: K562
EKVX = system: EKVX
UO-31 = system: UO-31
Hs-578T = system: Hs-578T
PC-3 = system: PC-3
MCF7 = system: MCF7

SMILES	GI50 (M14)	GI50 (OVCAR-4)	GI50 (ACHN)	GI50 (HOP-92)	GI50 (RPMI-8226)	GI50 (SNB-19)	GI50 (SK-MEL-2)	GI50 (SF-268)	GI50 (RXF 393)	GI50 (SK-OV-3)	GI50 (786-0)	GI50 (SNB-75)	GI50 (K562)	GI50 (EKVX)	GI50 (UO-31)	GI50 (Hs-578T)	GI50 (PC-3)	GI50 (MCF7)
O=C(CC1(O)C(=O)Nc2ccccc21)c1ccccc1O (configuration not stated)	> 100 µM (inactive)	> 100 µM (inactive)	> 100 µM (inactive)	> 100 µM (inactive)	> 100 µM (inactive)	> 100 µM (inactive)	> 100 µM (inactive)	> 100 µM (inactive)	> 100 µM (inactive)	> 100 µM (inactive)	> 100 µM (inactive)	> 100 µM (inactive)	> 100 µM (inactive)	> 100 µM (inactive)	91.6 µM (inactive)	–	–	–
O=C(c1cc(=O)c2ccc(O)cc2o1)c1ccc(Cl)cc1Cl	5.12 µM (inactive)	12 µM (inactive)	5.24 µM (inactive)	32.8 µM (inactive)	9.66 µM (inactive)	49.1 µM (inactive)	26 µM (inactive)	13.8 µM (inactive)	29 µM (inactive)	> 62.1 µM (inactive)	28.2 µM (inactive)	> 82.2 µM (inactive)	0.547 µM (active)	50.2 µM (inactive)	5.92 µM (inactive)	–	–	–
Cc1nc2c(n1C(C)(C)C)C(=O)c1ccccc1C2=O	> 100 µM (inactive)	92.9 µM (inactive)	48.6 µM (inactive)	9.31 µM (inactive)	–	> 100 µM (inactive)	80.4 µM (inactive)	54.5 µM (inactive)	> 100 µM (inactive)	> 100 µM (inactive)	> 100 µM (inactive)	31.9 µM (inactive)	49.7 µM (inactive)	> 100 µM (inactive)	37.2 µM (inactive)	–	–	–
O=C(O)c1ccccc1C(=O)c1ccco1	> 100 µM (inactive)	> 100 µM (inactive)	> 100 µM (inactive)	> 100 µM (inactive)	–	> 100 µM (inactive)	> 100 µM (inactive)	> 100 µM (inactive)	> 100 µM (inactive)	–	> 100 µM (inactive)	> 100 µM (inactive)	> 100 µM (inactive)	> 100 µM (inactive)	> 100 µM (inactive)	–	–	–
CC1=CC(C)(c2c[nH]c3ccccc23)CC(C)(C)c2c1[nH]c1ccccc21 (configuration not stated)	17.9 µM (inactive)	13.4 µM (inactive)	17.2 µM (inactive)	–	11.9 µM (inactive)	26.5 µM (inactive)	–	25.1 µM (inactive)	12.4 µM (inactive)	28.6 µM (inactive)	13.8 µM (inactive)	26.7 µM (inactive)	11.9 µM (inactive)	15.6 µM (inactive)	13.2 µM (inactive)	–	–	–
NC(=O)C12CC3CC(CC(Br)(C3)C1)C2	> 100 µM (inactive)	> 100 µM (inactive)	> 100 µM (inactive)	> 100 µM (inactive)	> 100 µM (inactive)	> 100 µM (inactive)	–	> 100 µM (inactive)	–	> 100 µM (inactive)	> 100 µM (inactive)	76.7 µM (inactive)	–	> 100 µM (inactive)	> 100 µM (inactive)	–	–	–
O=C(OCc1ccccc1)N1N=NC2C1C1CC(OCc3ccccc3)(OCc3ccccc3)C2O1 (configuration not stated)	> 100 µM (inactive)	> 100 µM (inactive)	> 100 µM (inactive)	> 100 µM (inactive)	> 100 µM (inactive)	–	> 100 µM (inactive)	> 100 µM (inactive)	> 100 µM (inactive)	> 100 µM (inactive)	> 100 µM (inactive)	> 100 µM (inactive)	> 100 µM (inactive)	–	> 100 µM (inactive)	–	–	–
O=C1c2ccccc2C(=O)c2c1ccc1c3ccccc3n(Cc3ccccc3)c21	> 100 µM (inactive)	53.6 µM (inactive)	94.2 µM (inactive)	26.2 µM (inactive)	> 100 µM (inactive)	–	> 100 µM (inactive)	> 100 µM (inactive)	–	> 100 µM (inactive)	> 100 µM (inactive)	2.35 µM (inactive)	> 100 µM (inactive)	> 100 µM (inactive)	> 100 µM (inactive)	–	–	–
C[C@@H](O)CCC(=O)c1ccoc1	> 100 µM (inactive)	> 100 µM (inactive)	> 100 µM (inactive)	> 100 µM (inactive)	> 100 µM (inactive)	> 100 µM (inactive)	> 100 µM (inactive)	> 100 µM (inactive)	> 100 µM (inactive)	> 100 µM (inactive)	> 100 µM (inactive)	> 49.2 µM (inactive)	> 100 µM (inactive)	> 100 µM (inactive)	> 100 µM (inactive)	–	–	–
Cc1cc(N(CCC#N)CCC#N)ccc1/C=N\c1ccc(C(=O)NN2C(=O)/C(=C/c3ccc(N(CCC#N)CCC#N)cc3)N=C2c2cc([N+](=O)[O-])ccc2Cl)cc1	62.7 µM (inactive)	> 100 µM (inactive)	53.8 µM (inactive)	> 100 µM (inactive)	> 100 µM (inactive)	> 100 µM (inactive)	> 100 µM (inactive)	> 100 µM (inactive)	> 100 µM (inactive)	> 100 µM (inactive)	> 100 µM (inactive)	> 100 µM (inactive)	33 µM (inactive)	> 100 µM (inactive)	> 100 µM (inactive)	–	–	–
CC1(Sc2ccccc2)CN(Cc2ccccc2)C1=O (configuration not stated)	> 100 µM (inactive)	88.5 µM (inactive)	> 100 µM (inactive)	20.5 µM (inactive)	57.3 µM (inactive)	> 100 µM (inactive)	> 100 µM (inactive)	> 100 µM (inactive)	> 100 µM (inactive)	> 100 µM (inactive)	> 100 µM (inactive)	39.6 µM (inactive)	77.8 µM (inactive)	> 100 µM (inactive)	22.8 µM (inactive)	–	–	–
O=c1cc(-c2ccccc2)[nH]c2cc(F)c(F)cc12	0.392 µM (active)	> 51.4 µM (inactive)	0.676 µM (active)	0.789 µM (active)	0.309 µM (active)	0.718 µM (active)	3.01 µM (inactive)	1.45 µM (inactive)	0.23 µM (active)	0.575 µM (active)	0.238 µM (active)	0.274 µM (active)	0.29 µM (active)	11.5 µM (inactive)	0.805 µM (active)	0.423 µM (active)	0.222 µM (active)	0.323 µM (active)
C[C@]12CC/C(=N\OC(=O)Nc3ccccc3)C=C1CC[C@@H]1C2CC[C@@]2(C)C1CC[C@@H]2OC(=O)Nc1ccccc1 (some centres not stated)	35.9 µM (inactive)	> 100 µM (inactive)	99.3 µM (inactive)	> 100 µM (inactive)	15.4 µM (inactive)	> 100 µM (inactive)	> 100 µM (inactive)	> 100 µM (inactive)	–	> 100 µM (inactive)	> 100 µM (inactive)	31.5 µM (inactive)	17.7 µM (inactive)	> 100 µM (inactive)	> 100 µM (inactive)	–	–	–
COC(=O)n1c(C[P+](c2ccccc2)(c2ccccc2)c2ccccc2)cc2ccccc21	1.13 µM (inactive)	5.92 µM (inactive)	3.87 µM (inactive)	0.0318 µM (active)	0.352 µM (active)	1.31 µM (inactive)	0.661 µM (active)	2.93 µM (inactive)	3.43 µM (inactive)	0.652 µM (active)	2.41 µM (inactive)	3.94 µM (inactive)	0.438 µM (active)	0.774 µM (active)	0.604 µM (active)	–	–	–
O/N=C1/C(=C/c2ccccc2)CCCC1C(NO)c1ccccc1 (configuration not stated)	84.9 µM (inactive)	31.3 µM (inactive)	68.4 µM (inactive)	33.3 µM (inactive)	35.5 µM (inactive)	91.4 µM (inactive)	> 100 µM (inactive)	55.7 µM (inactive)	34.8 µM (inactive)	> 100 µM (inactive)	> 100 µM (inactive)	> 100 µM (inactive)	3.31 µM (inactive)	61.9 µM (inactive)	57.1 µM (inactive)	–	–	–
COc1ccc(C)cc1-c1cc(Sc2ccccc2)c(-c2cc(C)ccc2OC)o1	> 31.6 µM (inactive)	> 31.6 µM (inactive)	> 31.6 µM (inactive)	> 31.6 µM (inactive)	> 31.6 µM (inactive)	> 31.6 µM (inactive)	> 10 µM (inactive)	> 31.6 µM (inactive)	–	> 31.6 µM (inactive)	> 31.6 µM (inactive)	> 31.6 µM (inactive)	> 31.6 µM (inactive)	> 31.6 µM (inactive)	> 31.6 µM (inactive)	–	–	–
COc1cc(Nc2nc3cc(C)ccc3nc2-c2ccccc2)cc(OC)c1OC	29.3 µM (inactive)	33 µM (inactive)	26.7 µM (inactive)	23.2 µM (inactive)	–	57.4 µM (inactive)	23 µM (inactive)	11.2 µM (inactive)	–	> 100 µM (inactive)	14.7 µM (inactive)	22.7 µM (inactive)	23.4 µM (inactive)	20.7 µM (inactive)	17.2 µM (inactive)	–	–	–
CC(C)[C@H]1CO[C@]2(C)[C@@H]3CN(Cc4ccccc4)C[C@@H]3C(=O)N12	> 100 µM (inactive)	> 100 µM (inactive)	> 100 µM (inactive)	74.5 µM (inactive)	> 100 µM (inactive)	> 100 µM (inactive)	> 100 µM (inactive)	> 100 µM (inactive)	> 100 µM (inactive)	> 100 µM (inactive)	> 100 µM (inactive)	> 100 µM (inactive)	> 100 µM (inactive)	> 100 µM (inactive)	> 100 µM (inactive)	–	–	–
CN(C)c1n/c(=N/c2cccc(Cl)c2)ss1	14.6 µM (inactive)	14.6 µM (inactive)	18.4 µM (inactive)	28.1 µM (inactive)	0.951 µM (active)	35.9 µM (inactive)	16.9 µM (inactive)	13.6 µM (inactive)	16.7 µM (inactive)	68.9 µM (inactive)	12.9 µM (inactive)	31 µM (inactive)	9.08 µM (inactive)	23.7 µM (inactive)	38.4 µM (inactive)	–	–	–
